In patent US20250235509A1, “Formulation and Method of Preparing Glucagon-like Peptide-1 (GLP-1) for Oral Administration” (priority 2024, published 2025):
Values joined by “and” are separate entries in the source; they are usually repeats but may differ in a detail not shown here. Equal values may be shown once. Read-outs that look alike come from different tables or passages of the source.

Columns and labels:
[1] = in vivo
Description: (§1) The concentrations of each reagent are as follows: • Liraglutide: 1.5 mM • EDTA: 5 to 10 mM • Zinc acetate: 15-100 mM Referring to FIGS. 1-7, an enzyme-linked immunosorbent assay (ELISA) was performed on the sera of mice orally administered with Liraglutide following the PSIM process.
(§2) In this assay, a mouse (at two weeks old) was gavaged with Liraglutide in contrasts to a control mouse to which no Liraglutide was administered. After two hours, serum was collected, and an ELISA assay performed.
(§3) Two hours later, serum was collected, and an ELISA assay was performed.

[2] = mouse, in vivo, po
Description: (§4) A quantitative ELISA assay to determine the absorption rate was also performed. The experimental mouse was sacrificed and whole body fluid collected one hour after feeding with Liraglutide. The intensity of the color was compared with that of a standard curve constructed by standard Liraglutide.
(§5) A quantitative ELISA assay was performed to determine the absorption rate, and the mice were sacrificed and whole body fluid collected one hour after feeding with Semaglutide GLP-1. […] The intensity of the color was compared with that of a standard curve constructed by standard Semaglutide GLP-1.

[3] = mouse, in vivo
Description: (§6) A mouse at two weeks old was gavaged with Liraglutide, or not treated with Liraglutide to serve as a control mouse. Two hours later, the pancreas of the mouse was collected and homogenized, and a protein extract was centrifuged. Thereafter the ELISA essay was conducted.
(§7) Experimental mice, at two weeks old, were gavaged with Semaglutide GLP-1 at 0.16 mg/mouse, and control mice received no orally administered Semaglutide GLP-1. Two hours later, the pancreas and brain were collected and homogenized, and protein extracts were subjected to an ELISA assay.

[4] = orally administered in combination with absorption enhancer such as Salcaprozate sodium (SNAC); cited from earlier work
[5] = ELISA assay of pancreas and brain extracts of orally dosed mice; conditions: two hours after gavage at 0.16 mg/mouse, mice two weeks old
Description: as §6, §7

[6] = ELISA assay of sera/plasma of mice orally administered with PSIM-processed GLP-1 analog; conditions: serum collected two hours after gavage, mouse two weeks old, vs control mouse
Description: as §1, §2, §3

[7] = tested on: blood glucose; assay: Blood glucose in mice after oral glucose solution; format: in vivo, mouse; conditions: fasted four hours, 50 mg oral glucose
Description: The orally administered Liraglutide was prepared by incubating Liraglutide at 1.7 mM in 9.6 mM EDTA for two hours, followed by incubation of the mixture with 15 mM zinc acetate for twelve hours to produce a Liraglutide for oral administration. The experimental mice were orally given 0.5 mg Liraglutide, and the control mice were administered a vehicle solution for 5 days. Thereafter, experimental and control mice were fasted for four hours followed by an orally given 50 mg glucose solution. Three and a half hours later, blood glucose was determined. The control mice were given a non-Liraglutide vehicle (N=3).
The orally administered Semaglutide GLP-1 was prepared by incubating Semaglutide GLP-1 at 1.7 mM in 9.6 mM EDTA for two hours, followed by incubation of the mixture with 15 mM zinc acetate for twelve hours to produce a Semaglutide GLP-1 for oral administration. Experimental mice were orally given 0.5 mg Liraglutide, and control mice were given a vehicle solution for 5 days. Thereafter, experimental and control mice were fasted for four hours, followed by an orally given 50 mg glucose solution. Three and a half hours later blood glucose was determined. The control mice were given a non-Liraglutide vehicle (N=3).
Orally administered Tirzepatide GLP-1 was also shown to lower blood glucose levels in mice. The orally administered Tirzepatide GLP-1 was prepared in the manner discussed above. Thereafter 0.15 mg of orally administered Tirzepatide GLP-1 was fed to mice for five days. The mice were fasted for four hours, then 50 mg of a glucose solution was orally given. Three hours later, blood glucose levels were determined. In three control mice, who received no orally administered Tirzepatide GLP-1, the glucose levels in mg/dl were 93, 95, and 88, respectively. In three experimental mice that received orally administered Tirzepatide GLP-1, the glucose levels were 50, 52, and 47, respectively. […]

[8] = Body weight change in mice given oral GLP-1 analog; format: in vivo, mouse; conditions: for % Body Weight Change / Body Weight (Day 1) / Body Weight (Day 7): individual Exp. mice
Description: A quantity of orally administered Semaglutide GLP-1 was prepared as discussed in FIG. 8, and orally given to mice (Exp.) for seven days, along with control mice (Control) to which no Semaglutide GLP-1 was orally administered. Body weight was measured at the beginning and on the seventh day. The results are reflected in the following table:
In one experiment, orally administered Tirzepatide GLP-1 caused weight loss in mice. A quantity of orally administered Tirzepatide GLP-1 was prepared as discussed above, and orally given to mice (Exp.) for five days, along with control mice (Control) to which no Tirzepatide GLP-1 was orally administered. Body weight was measured at the beginning and on the fifth day.

[9] = tested on: blood glucose; assay: Glucose tolerance in human subject (blood glucose AUC); format: in vivo
Description: A human subject was orally given 10 mg Semaglutide GLP-1 prepared as described in FIG. 8 at −2 minutes. A control human subject was not administered any Semaglutide GLP-1 At time zero, 15 g glucose was orally given. Blood glucose levels were monitored every fifteen minutes thereafter for ninety minutes. The area-under-curve (AUC), which represents the quantity of glucose in the blood was then determined.

[10] = Quantitative ELISA assay of whole body fluid to determine the absorption rate; conditions: oral; whole body fluid collected one hour after feeding; color intensity vs standard curve
Description: as §4, §5

For `CCCCCCCCCCCCCCCC(=O)N[C@@H](CCC(=O)NCCCC[C@H](NC(=O)[C@H](C)NC(=O)[C@H](C)NC(=O)[C@H](CCC(N)=O)NC(=O)CNC(=O)[C@H](CCC(=O)O)NC(=O)[C@H](CC(C)C)NC(=O)[C@H](Cc1ccc(O)cc1)NC(=O)[C@H](CO)NC(=O)[C@H](CO)NC(=O)[C@@H](NC(=O)[C@H](CC(=O)O)NC(=O)[C@H](CO)NC(=O)[C@@H](NC(=O)[C@H](Cc1ccccc1)NC(=O)[C@@H](NC(=O)CNC(=O)[C@H](CCC(=O)O)NC(=O)[C@H](C)NC(=O)[C@@H](N)Cc1cnc[nH]1)[C@@H](C)O)[C@@H](C)O)C(C)C)C(=O)N[C@@H](CCC(=O)O)C(=O)N[C@@H](Cc1ccccc1)C(=O)N[C@H](C(=O)N[C@@H](C)C(=O)N[C@@H](Cc1c[nH]c2ccccc12)C(=O)N[C@@H](CC(C)C)C(=O)N[C@H](C(=O)N[C@@H](CCCNC(=N)N)C(=O)NCC(=O)N[C@@H](CCCNC(=N)N)C(=O)NCC(=O)O)C(C)C)[C@@H](C)CC)C(=O)O` [Liraglutide], the “presence of GLP-1 in orally dosed mouse vs control, all instances FIGS. 1-4” value ([1]; po) was “increased presence of GLP-1”, the “presence in serum by ELISA (blue color)” value ([1]; mouse) was “existence of Liraglutide in the serum” and the absorption rate [2] was “seventy two”. For the same molecule, the “time at which substance appeared in the pancreas after gavage” value [3] was “ninety”.
In the case of Semaglutide, the bioavailability [4] is listed as “about 0.8%”.
For Semaglutide [Semaglutide GLP-1], the “presence in brain extract by ELISA (blue color)” value [5] was “presence of orally administered Semaglutide GLP-1 in the pancreas and brain”, the “presence in pancreas extract by ELISA (blue color)” value [5] was “presence of orally administered Semaglutide GLP-1 in the pancreas and brain” and the “presence in serum by ELISA (blue color)” value [6] was “existed in the experimental mouse serum”. The “blood glucose (average)” value ([7]; 0.5 mg orally for 5 days, measured three and a half hours later, N=3) was 45.00, the “average difference in blood glucose, control mice vs treated mice” value ([7]; 0.5 mg orally for 5 days, three and a half hours later) was “approximately 50%” and the “% Body Weight Change” value ([8]; Day 1 to Day 7 of oral dosing) was −7% and +8%. For the same molecule, the “Body Weight (Day 1)” value ([8]; beginning of seven days oral dosing) was 28 g (2×) and 24 g, the “Body Weight (Day 7)” value ([8]; seventh day of oral dosing) was 26 g (2×) and 28 g and the “body weight outcome relative to control mice” value ([8]; oral dosing for seven days) was “reduced weight gain or weight loss relative to the control mice”. The “blood glucose area-under-curve (AUC)” value ([9]; 10 mg orally at -2 minutes, 15 g oral glucose at time zero, monitored ninety minutes) was 232, the “AUC reduction vs control subject” value ([9]; 10 mg orally, 15 g oral glucose, ninety minutes) was “twenty six” and the absorption rate [10] was “approximately seventy”.
In the case of Tirzepatide [Tirzepatide GLP-1], the glucose levels ([7]; individual mice, 0.15 mg orally for five days, three hours later) is reported as 50 mg/dL and 52 mg/dL and 47 mg/dL, the “Body Weight (Day 1)” value ([8]; beginning of five days oral dosing) is reported as 26 g and 24 g and 28 g and the “% Body Weight Change” value ([8]; oral dosing for five days) is reported as −18% and −4.1% and −7.1%. For the same molecule, the “Body Weight (Day 7)” value ([8]; oral dosing for five days, text says measured on the fifth day) was 22 g and 23 g and 26 g and the “body weight outcome relative to control mice” value ([8]; oral dosing for five days) was “reduced weight gain or weight loss relative to the control mice”.
